Values joined by “and” are separate entries in the source; they are usually repeats but may differ in a detail not shown here. Equal entries are not always repeated.
Key:
FA19-rpoH-lacZ = test: Gonococcal growth in liquid culture (GC broth) with hormones (Fig S7)
[1] = target: T1, MtrR binding to rpoH operator (27mer) (Neisseria gonorrhoeae, UniProt P39897); test: Fluorescence polarization based DNA binding assay, rpoH operator; details: rpoH 27mer + 125 µM steroid
T1 construct: Hexa-histidine tag with TEV protease cleavage site (N, cleaved yes); made in house; host or cells: E. coli Rosetta Gami B(DE3) pLysS
Procedure: Fluorescence polarization based-DNA binding data were collected using a Panvera Beacon 2000 fluorescence polarization system (Invitrogen) and analyzed with Prism (Graphpad Software 9, 10). Purified MtrR was buffer exchanged into “DNA” binding buffer (150 mM NaCl, 20 mM Tris-HCl pH 7.5, 2.5% glycerol, 1 mM TCEP). […] The reported oligoduplexes containing the rpoH and mtrCDE binding site differ in lengths, 27mer and 21mer, respectively[17],[21]. […] BSA and dI-dC are included as carriers and to control for nonspecific DNA binding. Samples were excited at 490 nm and polarized emissions measured at 530 nm. Controls were run with no protein (DNA ± methanol, hormonal steroids) to ensure that millipolarization values were not affected by experimental conditions alone. The binding affinity of protein for DNA was determined using the following equation: P = Pf + (Pb – Pf) [M] / (Kd + [M]) where P is the measured polarization, Pf is the polarization of free DNA, Pb is the polarization of the completely bound DNA, Kd is the equilibrium dissociation constant, and M is the concentration of protein. Pb and Kd were determined by nonlinear least-squares analysis. At least three independent experimental measurements were averaged for each reported binding constant.

T1 sequence (P39897 whole entry): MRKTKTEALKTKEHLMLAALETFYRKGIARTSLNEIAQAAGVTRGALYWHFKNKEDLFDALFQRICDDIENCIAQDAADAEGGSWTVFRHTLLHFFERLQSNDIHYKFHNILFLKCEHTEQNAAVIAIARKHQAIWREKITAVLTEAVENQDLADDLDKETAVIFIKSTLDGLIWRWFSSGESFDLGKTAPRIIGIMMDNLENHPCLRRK

CC(=O)[C@H]1CC[C@H]2[C@@H]3CCC4=CC(=O)CC[C@]4(C)[C@H]3CC[C@]12C [Progesterone, progesterone]
growth curve reading after BLANKING (FA19-rpoH-lacZ; 0 hr, 0.1 µM): 0.013 | growth curve reading, raw replicates (FA19-rpoH-lacZ; 0 hr, 0.1 µM): 0.046 | growth curve reading after BLANKING (FA19-rpoH-lacZ; 0 hr, 1 µM): 0.013 | growth curve reading, raw replicates (FA19-rpoH-lacZ; 0 hr, 1 µM): 0.046 | growth curve reading after BLANKING (FA19-rpoH-lacZ; 0 hr, 10 µM): 0.013 | growth curve reading, raw replicates (FA19-rpoH-lacZ; 0 hr, 10 µM): 0.046 | growth curve reading after BLANKING (FA19-rpoH-lacZ; 0 hr, 25 µM): 0.013 | growth curve reading, raw replicates (FA19-rpoH-lacZ; 0 hr, 25 µM): 0.046 | growth curve reading after BLANKING (FA19-rpoH-lacZ; 0 hr, 50 µM): 0.013 | growth curve reading, raw replicates (FA19-rpoH-lacZ; 0 hr, 50 µM): 0.046 | growth curve reading after BLANKING (FA19-rpoH-lacZ; 1.18 hr, 0.1 µM): 0.018 | growth curve reading, raw replicates (FA19-rpoH-lacZ; 1.18 hr, 0.1 µM): 0.051 and 0.052 | growth curve reading after BLANKING (FA19-rpoH-lacZ; 1.18 hr, 1 µM): 0.020 | growth curve reading, raw replicates (FA19-rpoH-lacZ; 1.18 hr, 1 µM): 0.051 and 0.054 | growth curve reading after BLANKING (FA19-rpoH-lacZ; 1.18 hr, 10 µM): 0.019 | growth curve reading, raw replicates (FA19-rpoH-lacZ; 1.18 hr, 10 µM): 0.051 and 0.052 | growth curve reading after BLANKING (FA19-rpoH-lacZ; 1.18 hr, 25 µM): 0.018 | growth curve reading, raw replicates (FA19-rpoH-lacZ; 1.18 hr, 25 µM): 0.051 and 0.052 | growth curve reading after BLANKING (FA19-rpoH-lacZ; 1.18 hr, 50 µM): 0.017 | growth curve reading, raw replicates (FA19-rpoH-lacZ; 1.18 hr, 50 µM): 0.049 and 0.051 | growth curve reading after BLANKING (FA19-rpoH-lacZ; 2 hr, 0.1 µM): 0.029 | growth curve reading, raw replicates (FA19-rpoH-lacZ; 2 hr, 0.1 µM): 0.062 | growth curve reading after BLANKING (FA19-rpoH-lacZ; 2 hr, 1 µM): 0.031 | growth curve reading, raw replicates (FA19-rpoH-lacZ; 2 hr, 1 µM): 0.063 and 0.066 | growth curve reading after BLANKING (FA19-rpoH-lacZ; 2 hr, 10 µM): 0.029 | growth curve reading, raw replicates (FA19-rpoH-lacZ; 2 hr, 10 µM): 0.062 | growth curve reading after BLANKING (FA19-rpoH-lacZ; 2 hr, 25 µM): 0.030 | growth curve reading, raw replicates (FA19-rpoH-lacZ; 2 hr, 25 µM): 0.062 and 0.065 | growth curve reading after BLANKING (FA19-rpoH-lacZ; 2 hr, 50 µM): 0.026 | growth curve reading, raw replicates (FA19-rpoH-lacZ; 2 hr, 50 µM): 0.060 and 0.059 | growth curve reading after BLANKING (FA19-rpoH-lacZ; 3 hr, 0.1 µM): 0.038 | growth curve reading, raw replicates (FA19-rpoH-lacZ; 3 hr, 0.1 µM): 0.072 and 0.070 | growth curve reading after BLANKING (FA19-rpoH-lacZ; 3 hr, 1 µM): 0.046 | growth curve reading, raw replicates (FA19-rpoH-lacZ; 3 hr, 1 µM): 0.080 and 0.077 | growth curve reading after BLANKING (FA19-rpoH-lacZ; 3 hr, 10 µM): 0.037 | growth curve reading, raw replicates (FA19-rpoH-lacZ; 3 hr, 10 µM): 0.070 | growth curve reading after BLANKING (FA19-rpoH-lacZ; 3 hr, 25 µM): 0.046 | growth curve reading, raw replicates (FA19-rpoH-lacZ; 3 hr, 25 µM): 0.079 | growth curve reading after BLANKING (FA19-rpoH-lacZ; 3 hr, 50 µM): 0.033 | growth curve reading, raw replicates (FA19-rpoH-lacZ; 3 hr, 50 µM): 0.067 and 0.065 | growth curve reading after BLANKING (FA19-rpoH-lacZ; 4 hr, 0.1 µM): 0.053 | growth curve reading, raw replicates (FA19-rpoH-lacZ; 4 hr, 0.1 µM): 0.086 | growth curve reading after BLANKING (FA19-rpoH-lacZ; 4 hr, 1 µM): 0.062 | growth curve reading, raw replicates (FA19-rpoH-lacZ; 4 hr, 1 µM): 0.093 and 0.096 | growth curve reading after BLANKING (FA19-rpoH-lacZ; 4 hr, 10 µM): 0.050 | growth curve reading, raw replicates (FA19-rpoH-lacZ; 4 hr, 10 µM): 0.082 and 0.084 | growth curve reading after BLANKING (FA19-rpoH-lacZ; 4 hr, 25 µM): 0.062 | growth curve reading, raw replicates (FA19-rpoH-lacZ; 4 hr, 25 µM): 0.096 and 0.093 | growth curve reading after BLANKING (FA19-rpoH-lacZ; 4 hr, 50 µM): 0.044 | growth curve reading, raw replicates (FA19-rpoH-lacZ; 4 hr, 50 µM): 0.076 and 0.078 | growth curve reading after BLANKING (FA19-rpoH-lacZ; 5 hr, 0.1 µM): 0.071 | growth curve reading, raw replicates (FA19-rpoH-lacZ; 5 hr, 0.1 µM): 0.103 and 0.104 | growth curve reading after BLANKING (FA19-rpoH-lacZ; 5 hr, 1 µM): 0.079 | growth curve reading, raw replicates (FA19-rpoH-lacZ; 5 hr, 1 µM): 0.110 and 0.113 | growth curve reading after BLANKING (FA19-rpoH-lacZ; 5 hr, 10 µM): 0.065 | growth curve reading, raw replicates (FA19-rpoH-lacZ; 5 hr, 10 µM): 0.096 and 0.099 | growth curve reading after BLANKING (FA19-rpoH-lacZ; 5 hr, 25 µM): 0.078 | growth curve reading, raw replicates (FA19-rpoH-lacZ; 5 hr, 25 µM): 0.113 and 0.110 | growth curve reading after BLANKING (FA19-rpoH-lacZ; 5 hr, 50 µM): 0.056 | growth curve reading, raw replicates (FA19-rpoH-lacZ; 5 hr, 50 µM): 0.087 and 0.090 | growth curve reading after BLANKING (FA19-rpoH-lacZ; 5.95 hr, 0.1 µM): 0.089 | growth curve reading, raw replicates (FA19-rpoH-lacZ; 5.95 hr, 0.1 µM): 0.121 and 0.123 | growth curve reading after BLANKING (FA19-rpoH-lacZ; 5.95 hr, 1 µM): 0.097 | growth curve reading, raw replicates (FA19-rpoH-lacZ; 5.95 hr, 1 µM): 0.130 | growth curve reading after BLANKING (FA19-rpoH-lacZ; 5.95 hr, 10 µM): 0.080 | growth curve reading, raw replicates (FA19-rpoH-lacZ; 5.95 hr, 10 µM): 0.112 and 0.115 | growth curve reading after BLANKING (FA19-rpoH-lacZ; 5.95 hr, 25 µM): 0.095 | growth curve reading, raw replicates (FA19-rpoH-lacZ; 5.95 hr, 25 µM): 0.130 and 0.126 | growth curve reading after BLANKING (FA19-rpoH-lacZ; 5.95 hr, 50 µM): 0.070 | growth curve reading, raw replicates (FA19-rpoH-lacZ; 5.95 hr, 50 µM): 0.103 and 0.104 | growth curve reading after BLANKING (FA19-rpoH-lacZ; 6.82 hr, 0.1 µM): 0.100 | growth curve reading, raw replicates (FA19-rpoH-lacZ; 6.82 hr, 0.1 µM): 0.130 | growth curve reading after BLANKING (FA19-rpoH-lacZ; 6.82 hr, 1 µM): 0.112 | growth curve reading after BLANKING (FA19-rpoH-lacZ; 6.82 hr, 10 µM): 0.091 | growth curve reading, raw replicates (FA19-rpoH-lacZ; 6.82 hr, 10 µM): 0.126 and 0.123 | growth curve reading after BLANKING (FA19-rpoH-lacZ; 6.82 hr, 25 µM): 0.109 | growth curve reading after BLANKING (FA19-rpoH-lacZ; 6.82 hr, 50 µM): 0.083 | growth curve reading, raw replicates (FA19-rpoH-lacZ; 6.82 hr, 50 µM): 0.114 and 0.119 | fluorescence polarization, MtrR titration ([1]; MtrR WT dimer 0.00 nM): 0.00 mP | fluorescence polarization, MtrR titration ([1]; MtrR WT dimer 25.90 nM): 11.91 mP and 9.75 mP and 10.51 mP | fluorescence polarization, MtrR titration ([1]; MtrR WT dimer 35.50 nM): 14.38 mP and 9.72 mP and 14.14 mP | fluorescence polarization, MtrR titration ([1]; MtrR WT dimer 54.52 nM): 18.81 mP and 15.99 mP and 17.44 mP | fluorescence polarization, MtrR titration ([1]; MtrR WT dimer 73.35 nM): 23.45 mP and 18.32 mP and 20.67 mP | fluorescence polarization, MtrR titration ([1]; MtrR WT dimer 110.67 nM): 27.11 mP and 21.95 mP and 25.01 mP | fluorescence polarization, MtrR titration ([1]; MtrR WT dimer 147.65 nM): 29.38 mP and 25.62 mP and 28.21 mP | fluorescence polarization, MtrR titration ([1]; MtrR WT dimer 220.59 nM): 32.78 mP and 29.35 mP and 32.41 mP | fluorescence polarization, MtrR titration ([1]; MtrR WT dimer 292.55 nM): 36.31 mP and 32.79 mP and 35.11 mP | fluorescence polarization, MtrR titration ([1]; MtrR WT dimer 363.86 nM): 36.91 mP and 35.45 mP and 37.94 mP | fluorescence polarization, MtrR titration ([1]; MtrR WT dimer 434.54 nM): 40.61 mP and 38.05 mP and 40.54 mP | fluorescence polarization, MtrR titration ([1]; MtrR WT dimer 504.61 nM): 41.81 mP and 39.19 mP and 42.17 mP | fluorescence polarization, MtrR titration ([1]; MtrR WT dimer 574.07 nM): 44.75 mP and 41.42 mP and 44.21 mP
